Patent US20230201217A1 (priority 2019, published 2023)
“And” between values parts separate entries of the source, which are not always exact repeats. Equal entries are not always repeated. “Also recorded” adds a separate entry of the source.

How the values were obtained:
mouse liver = experiment: In vivo comet assay
Protocol: The comet assay (alkaline single cell gel electrophoresis) is a microgel electrophoretic technique that detects DNA damage in individual cells. DNA damage can be expressed as DNA single strand breaks, double strand breaks, and strand breaks induced by alkali labile sites. […] For this study, the liver was selected as the tissue for evaluation, since this tissue is expected to contain high concentrations of parent drug and metabolites following oral administration.
Male mice were administered oral doses of 0 (vehicle=5% dextrose), 50, 90 and 120 mg/kg/day by gavage according to the table below. Animals in groups 1-4 were dosed on three consecutive days and euthanized 3 to 4 hours after the last dose by CO2 inhalation. A separate group of animals were dosed with methyl methanesulfonate (MMS) which served as a positive control. Immediately following euthanasia, the liver was removed and collected from each animal.
In this study, comet tail migration, % tail DNA (also known as % tail intensity) and tail moment were determined for each animal/treatment group and served as parameters of DNA damage.

[1] = tested on: dopamine release in the nucleus accumbens shell; conditions: 40 mg/kg pretreatment, 19 hours beforehand; cited from earlier work
dogs = experiment: Single-dose oral toxicity; format: in vivo, dog
[2] = Stability of oral dosing solution; format: physicochemical
Source text: (§1) Most preferably, an oral dose of the composition is used. An oral dosing formulation was validated by a GLP study.

[3] = tested on: rats, cocaine seeking behavior; conditions: 40 mg/kg i.p.; cited from earlier work
male Sprague-Dawley rats = experiment: Intracranial self-stimulation (ICSS), frequency-rate procedure
Solubility = format: physicochemical
Source text: 18-MC HCl can be supplied as a dry powder packaged in double plastic bags in an HDPE bottle with desiccant. The 18-MC HCl can be formulated at the clinical site into a solution for dosing patients. […] Based on the properties of the compound, it can also be formulated in a solid oral formulation (tablet, capsule, sachets, granules, etc.)
as §1

plasma protein [4] = experiment: Plasma protein binding; format: in vitro ADME, Mouse
Source text: (§2) There is no information on the protein binding of any of the metabolites.

[5] = tested on: isolated rabbit Purkinje fibers; experiment: Action potential duration in rabbit cardiac Purkinje fibers
Protocol: The in vitro effect of 18-MC on the cardiac action potential was evaluated in isolated rabbit Purkinje fibers (FIG. 13). […] Fibers with resting potentials more negative than −80 mV and normal action potential morphology (APD90≥150 ms) were used in the study. Fibers were stimulated continuously at BCL of 1 second for at least 5 minutes. At the end of this period, baseline control APD rate dependence was measured using stimulus pulse trains consisting of approximately 50 pulses at BCL of 1 and 0.5 seconds. After returning to BCL of 1 second, 18-MC (or dl-sotalol) at the lowest concentration was applied for at least 20 minutes to allow equilibration, and the stimulus trains repeated. […] The average responses from the last five recorded action potentials from each stimulus train were analyzed for each test condition.
Electrophysiological recordings were performed with four nominal concentrations of 18-MC (0.3, 1, 3, and 10 μM) added sequentially to four preparations at two stimulus intervals (basic cycle lengths of 1 s and 0.5 s). The effects of 18-MC on action potential parameters were compared to time-matched vehicle control sequences.

CYP2B6 = CYP2B6 (Homo sapiens, UniProt P20813); conditions: recombinant enzyme
Protocol: (§4) Control incubations were performed for each assay with appropriate positive inhibitory controls.

[6] = Plasma 18-MC concentration in rats, 5-day dosing self-administration study
Protocol: Blood samples were collected from animals immediately after their cocaine self-administration at approximately 2 hours post dose in the first day of dosing (Day 0), and the last day of dosing (Day 4).

plasma protein [7] = experiment: Plasma protein binding; format: in vitro ADME, Rat
Source text: as §2

plasma protein [8] = experiment: Plasma protein binding; format: in vitro ADME, Human
Source text: as §2

healthy volunteers = experiment: Phase 1 first-in-human study, safety and tolerability; format: in vivo; set-up: key to AE Urinary tract infection (subject A1): Study Drug related / AE Retro-orbital headache (subject A2): Study Drug related / AE Hot coffee burn in hand and right forearm (subject A3): Study Drug related / AE Dry cough (subject A4): Study Drug related / AE Body pain (subject A5): Study Drug related / AE Occipital and frontal headache (subject A6): Study Drug related / AE Nausea (subject A1): Study Drug related / AE Arterial Hypotension (subject A1): Study Drug related / AE Pain - submandibular lymph node (subject A1): Study Drug related: 1 Not related; 2 Possible; 3 Probable
Protocol: None discontinued the study.
Safety was monitored by reported adverse events, hematology, serum chemistries (including electrolytes, renal and liver function, urinalysis, ECG and vital signs. In addition, a neurological examination (mini-mental status exam) including assessment for abnormal eye movement, nystagmus, tremors, reflexes, upper and lower extremity strength, distal sensor perception, intention tremor, the Romberg test, excessive somnolence and mental status were performed.

Mu opioid receptor = Mu opioid receptor (Homo sapiens, UniProt P35372); experiment: In vitro radio-ligand assay; format: binding; conditions: 10 μM
Protocol: (§3) The binding potential of 18-MC with 64 neurotransmitter-related binding sites was evaluated (TABLE 2).

[9] = tested on: adrenergic alpha-1 receptor; experiment: In vitro radio-ligand assay; format: binding; conditions: 10 μM
Protocol: as §3

sodium site 2 channel = experiment: In vitro radio-ligand assay; format: binding; conditions: 10 μM
Protocol: as §3

CYP2D6 = CYP2D6 (Homo sapiens, UniProt P10635); conditions: recombinant enzyme
Protocol: as §4

CYP2A6 = CYP2A6 (Homo sapiens, UniProt P11509); conditions: recombinant enzyme
Protocol: as §4

[10] = tested on: 64 neurotransmitter-related binding sites; experiment: In vitro radio-ligand receptor and enzyme assays (panel); conditions: 100 nM
Protocol: as §3

[11] = Dose Day 0, post dose (~2 h), 600 mg/kg/day

Sequence of Mu opioid receptor (P35372 whole entry, species assumed): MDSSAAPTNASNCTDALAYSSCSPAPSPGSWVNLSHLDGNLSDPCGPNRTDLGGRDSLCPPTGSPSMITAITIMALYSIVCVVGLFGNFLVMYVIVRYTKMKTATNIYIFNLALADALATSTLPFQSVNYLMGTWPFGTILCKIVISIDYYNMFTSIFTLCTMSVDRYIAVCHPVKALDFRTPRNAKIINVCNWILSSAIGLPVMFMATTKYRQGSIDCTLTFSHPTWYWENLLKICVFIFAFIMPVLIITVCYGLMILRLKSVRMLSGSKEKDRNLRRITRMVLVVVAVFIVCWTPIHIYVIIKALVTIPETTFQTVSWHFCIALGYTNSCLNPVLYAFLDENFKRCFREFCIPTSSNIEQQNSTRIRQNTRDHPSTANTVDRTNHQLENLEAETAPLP
Sequence of CYP2A6 (P11509 whole entry): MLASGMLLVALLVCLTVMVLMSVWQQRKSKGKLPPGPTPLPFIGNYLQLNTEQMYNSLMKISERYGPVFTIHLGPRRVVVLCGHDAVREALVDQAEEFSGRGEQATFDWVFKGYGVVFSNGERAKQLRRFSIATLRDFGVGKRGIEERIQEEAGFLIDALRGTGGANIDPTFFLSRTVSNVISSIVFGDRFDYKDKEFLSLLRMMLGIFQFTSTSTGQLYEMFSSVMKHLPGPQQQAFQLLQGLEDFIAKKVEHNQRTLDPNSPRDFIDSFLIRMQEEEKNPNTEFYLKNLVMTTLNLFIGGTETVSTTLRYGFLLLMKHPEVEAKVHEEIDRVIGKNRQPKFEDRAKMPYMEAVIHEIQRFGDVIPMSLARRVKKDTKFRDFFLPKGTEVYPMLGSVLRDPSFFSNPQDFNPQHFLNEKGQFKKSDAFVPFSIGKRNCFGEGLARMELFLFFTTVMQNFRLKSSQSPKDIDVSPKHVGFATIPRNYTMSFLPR
Sequence of CYP2D6 (P10635 whole entry): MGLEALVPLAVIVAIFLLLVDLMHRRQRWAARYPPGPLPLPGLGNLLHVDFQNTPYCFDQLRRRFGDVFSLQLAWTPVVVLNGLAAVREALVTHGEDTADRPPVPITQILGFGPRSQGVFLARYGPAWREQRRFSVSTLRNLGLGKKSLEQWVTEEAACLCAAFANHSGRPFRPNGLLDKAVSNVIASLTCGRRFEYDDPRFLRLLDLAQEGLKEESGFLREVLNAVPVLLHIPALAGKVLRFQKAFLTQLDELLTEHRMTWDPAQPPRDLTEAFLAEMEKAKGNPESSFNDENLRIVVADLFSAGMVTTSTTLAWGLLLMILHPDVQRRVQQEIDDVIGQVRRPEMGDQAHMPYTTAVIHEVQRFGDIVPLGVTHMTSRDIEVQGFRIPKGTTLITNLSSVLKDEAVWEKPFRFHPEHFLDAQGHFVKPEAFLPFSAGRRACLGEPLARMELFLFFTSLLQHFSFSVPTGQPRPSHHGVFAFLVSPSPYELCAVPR
Sequence of CYP2B6 (P20813 whole entry): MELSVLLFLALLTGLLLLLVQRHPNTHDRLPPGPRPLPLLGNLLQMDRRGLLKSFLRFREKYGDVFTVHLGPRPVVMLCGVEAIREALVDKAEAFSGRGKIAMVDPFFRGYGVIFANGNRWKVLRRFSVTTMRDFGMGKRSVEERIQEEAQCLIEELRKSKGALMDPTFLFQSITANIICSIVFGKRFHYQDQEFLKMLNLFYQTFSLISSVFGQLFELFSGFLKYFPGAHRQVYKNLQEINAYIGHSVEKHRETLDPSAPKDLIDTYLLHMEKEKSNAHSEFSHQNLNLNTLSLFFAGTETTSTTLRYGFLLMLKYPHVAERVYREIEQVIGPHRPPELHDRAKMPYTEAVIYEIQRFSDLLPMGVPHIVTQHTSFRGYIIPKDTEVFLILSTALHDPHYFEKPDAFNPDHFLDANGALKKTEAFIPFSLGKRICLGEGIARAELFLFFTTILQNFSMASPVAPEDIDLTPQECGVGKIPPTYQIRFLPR

COCCC1CC2CN3CCc4c([nH]c5ccccc45)C(C(=O)OC)(C2)C13.Cl (stereo not drawn) [18-MC HCl, 18-Methoxycoronaridine hydrochloride]
mean % tail DNA (mouse liver; 90 mg/kg/day, vehicle 1.27+/−0.52): 2.60+/−0.7% | mouse comet assay result (mouse liver; 50, 90, 120 mg/kg/day, 3 days): negative | acute dopamine response to cocaine [1]: little effect | sensitized dopamine response to cocaine [1]: abolished the sensitized dopamine response | dose at which emesis was seen (dogs): 100 mg/kg | stability of dosing solution ([2]; after 3 freeze-thaw (20° C.) cycles): met the required stability criteria | homogeneity, concentration acceptability, solubility and stability of dosing formulation ([2]; after 10 days of refrigerated storage): met the applicable ICH criteria | reinstatement effect of cues associated with cocaine self-administration [3]: blocked the reinstatement effect | M50, Test, mean (SEM) (male Sprague-Dawley rats; 10 mg/kg i.p.): 1.94 (0.02) log/Hz | Threshold (T0), Test, mean (SEM) (male Sprague-Dawley rats; 10 mg/kg i.p.): 1.80 (0.03) log/Hz | M50, Test, mean (SEM) (male Sprague-Dawley rats; 40 mg/kg i.p.): 1.95 (0.02) log/Hz | Threshold (T0), Test, mean (SEM) (male Sprague-Dawley rats; 40 mg/kg i.p.): 1.85 (0.03) log/Hz | M50, Test, mean (SEM) (male Sprague-Dawley rats; 56 mg/kg i.p.): 1.95 (0.02) log/Hz | Threshold (T0), Test, mean (SEM) (male Sprague-Dawley rats; 56 mg/kg i.p.): 1.85 (0.02) log/Hz | effect on ICSS frequency-rate curves, M50 and threshold (T0) (male Sprague-Dawley rats; 10, 40, 56 mg/kg i.p., 45 minutes before test session, hydrochloride): did not affect; also recorded: no main effect | solubility in dimethyl sulfoxide (DMSO) (Solubility): freely soluble | maximum solubility (Solubility; 5% dextrose (pH 3.0)): 40 mg/mL | solubility in aqueous solution (Solubility; neutral and alkaline pH): poorly soluble

COCC[C@H]1CC2CN3CCc4c([nH]c5ccccc45)[C@](C(=O)OC)(C2)[C@H]13 [18-MC, 18-methoxycoronaridine]
% Bound Mean ± SD (plasma protein [4]; 200 ng/mL): 97.0 ± 0.208% | % Bound Mean ± SD (plasma protein [4]; 600 ng/mL): 97.1 ± 0.058% | % Bound Mean ± SD (plasma protein [4]; 5,000 ng/mL): 96.5 ± 0.071% | Average % Bound Mean ± SD (plasma protein [4]; average of 3 concentrations): 96.9 ± 0.321% | APD60 ([5]; 3 μM, 1 second BCL): statistically significant (p<0.05) shortening | APD60 ([5]; 10 μM, 0.5 and 1 s BCL): statistically significant (P<0.05) shortening | resting membrane potential, action potential amplitude, Vmax ([5]; any concentration tested, two stimulus intervals): did not induce significant changes | IC50 (CYP2B6): > 100 µM | Plasma 18-MC concentration, Average [6, 11]: 11,442 ng/mL | Plasma 18-MC concentration, individual animals [6, 11]: 3,450 ng/mL and 12,600 ng/mL and 11,300 ng/mL and 13,900 ng/mL and 14,200 ng/mL and 13,200 ng/mL | Plasma 18-MC concentration, Average ([6]; Dose Day 4, post dose): 7,524 ng/mL | Plasma 18-MC concentration, individual animals ([6]; Dose Day 4, post dose): 9,030 ng/mL and 3,760 ng/mL and 8,040 ng/mL and 10,500 ng/mL and 6,290 ng/mL | Plasma 18-MC concentration, Average ([6]; Dose Day 4, pre dose): 2,998 ng/mL | Plasma 18-MC concentration, individual animals ([6]; Dose Day 4, pre dose): 3,840 ng/mL and 1,680 ng/mL and 3,020 ng/mL and 2,720 ng/mL and 3,730 ng/mL | % Bound Mean ± SD (plasma protein [7]; 200 ng/mL): 92.9 ± 0.351% | % Bound Mean ± SD (plasma protein [7]; 600 ng/mL): 94.9 ± 0.794% | % Bound Mean ± SD (plasma protein [7]; 5,000 ng/mL): 90.2 ± 0.153% | Average % Bound Mean ± SD (plasma protein [7]; average of 3 concentrations): 92.7 ± 2.36% | % Bound Mean ± SD (plasma protein [8]; 200 ng/mL): 96.8 ± 0.321% | % Bound Mean ± SD (plasma protein [8]; 600 ng/mL): 97.6 ± 0.153% | % Bound Mean ± SD (plasma protein [8]; 5,000 ng/mL): 95.2 ± 0.473% | Average % Bound Mean ± SD (plasma protein [8]; average of 3 concentrations): 96.5 ± 1.22% | serious adverse events (healthy volunteers; 20 mg single dose, 4 mg twice): No serious adverse events occurred | dose at which safe in healthy volunteers (healthy volunteers; FIH study): up to 20 mg | AE Arterial Hypotension (subject A1): Severity (healthy volunteers; day noted 1): 1 | AE Arterial Hypotension (subject A1): Study Drug related (healthy volunteers; day noted 1): 2 | AE Nausea (subject A1): Severity (healthy volunteers; day noted 1): 1 | AE Nausea (subject A1): Study Drug related (healthy volunteers; day noted 1): 2 | AE Pain - submandibular lymph node (subject A1): Severity (healthy volunteers; day noted 1): 1 | AE Pain - submandibular lymph node (subject A1): Study Drug related (healthy volunteers; day noted 1): 2 | AE Retro-orbital headache (subject A2): Severity (healthy volunteers; day noted 1): 1 | AE Retro-orbital headache (subject A2): Study Drug related (healthy volunteers; day noted 1): 2 | AE Urinary tract infection (subject A1): Severity (healthy volunteers; day noted 2-30): 2 | AE Urinary tract infection (subject A1): Study Drug related (healthy volunteers; day noted 2-30): 1 | AE Occipital and frontal headache (subject A6): Severity (healthy volunteers; day noted 4): 2 | AE Occipital and frontal headache (subject A6): Study Drug related (healthy volunteers; day noted 4): 1 | AE Dry cough (subject A4): Severity (healthy volunteers; day noted 4 (CRF entry error)): 1 | AE Dry cough (subject A4): Study Drug related (healthy volunteers; day noted 4 (CRF entry error)): 3 | AE Hot coffee burn in hand and right forearm (subject A3): Severity (healthy volunteers; day noted 7): 1 | AE Hot coffee burn in hand and right forearm (subject A3): Study Drug related (healthy volunteers; day noted 7): 1 | AE Body pain (subject A5): Severity (healthy volunteers; day noted 30): 1 | AE Body pain (subject A5): Study Drug related (healthy volunteers; day noted 30): 1 | binding (Mu opioid receptor): binding was seen | binding [9]: binding was seen | binding (sodium site 2 channel): binding was seen | IC50 (CYP2D6): > 100 µM | IC50 (CYP2A6): > 100 µM | binding activity [10]: no binding activity
